The values that follow come from US9567302B2, “Carbamate compounds and of making and using same” (Abide Therapeutics, Inc., priority 2012, dated 2017).

Common to all, as to assay type: biochemical
Parameters in all cases: from tissue; host or cells: mouse brain membrane fraction
What all share (conditions): Table 2, mouse proteome, 30 min preincubation at 37° C.

One experiment has as its target T1, FAAH (Mus musculus, UniProt O08914).
T1 sequence (O08914 1-579): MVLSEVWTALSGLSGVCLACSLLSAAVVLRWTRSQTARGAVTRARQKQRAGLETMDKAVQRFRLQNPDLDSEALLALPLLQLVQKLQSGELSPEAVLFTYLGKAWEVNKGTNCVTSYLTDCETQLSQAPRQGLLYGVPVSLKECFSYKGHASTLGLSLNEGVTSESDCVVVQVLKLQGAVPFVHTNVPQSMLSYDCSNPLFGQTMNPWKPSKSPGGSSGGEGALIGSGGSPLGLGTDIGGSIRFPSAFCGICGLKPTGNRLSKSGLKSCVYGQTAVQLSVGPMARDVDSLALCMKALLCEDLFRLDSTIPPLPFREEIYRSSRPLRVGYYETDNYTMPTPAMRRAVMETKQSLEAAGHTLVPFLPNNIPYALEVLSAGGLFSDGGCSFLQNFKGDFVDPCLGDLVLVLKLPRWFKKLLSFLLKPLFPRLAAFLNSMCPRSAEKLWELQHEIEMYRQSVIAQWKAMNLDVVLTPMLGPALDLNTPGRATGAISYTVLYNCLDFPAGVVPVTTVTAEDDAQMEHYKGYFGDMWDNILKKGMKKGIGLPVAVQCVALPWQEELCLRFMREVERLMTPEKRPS
The experiment is described as follows: In vitro competitive activity-based protein profiling (FP-Rh), mouse FAAH. Here is the method: (§1) In Vitro Competitive Activity-Based Protein Profiling.
(§2) Proteomes (mouse brain membrane fraction or cell lysates) (50 μL, 1.0 mg/ml total protein concentration) were preincubated with varying concentrations of inhibitors at 37° C. After 30 min, FP-Rh (1.0 μL, 50 μM in DMSO) was added and the mixture was incubated for another 30 min at 37° C. Reactions were quenched with SDS loading buffer (50 μL—4×) and run on SDS-PAGE.

A further experiment addresses T2, ABHD6 (Mus musculus, UniProt Q8R2Y0).
T2 sequence (Q8R2Y0 1-336): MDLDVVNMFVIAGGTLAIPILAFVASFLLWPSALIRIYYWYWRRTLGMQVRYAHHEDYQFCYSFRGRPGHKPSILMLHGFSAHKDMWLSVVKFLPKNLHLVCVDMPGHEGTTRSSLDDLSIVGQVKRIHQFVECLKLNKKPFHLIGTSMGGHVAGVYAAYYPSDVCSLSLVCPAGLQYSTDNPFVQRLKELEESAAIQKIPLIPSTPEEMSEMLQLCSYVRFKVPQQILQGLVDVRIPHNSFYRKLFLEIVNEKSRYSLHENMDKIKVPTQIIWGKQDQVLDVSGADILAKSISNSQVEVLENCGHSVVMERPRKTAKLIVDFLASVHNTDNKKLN
The experiment is described as follows: In vitro competitive activity-based protein profiling (FP-Rh), mouse ABHD6. Here is the method:
as §1, §2

For the next experiment, the target named is T3, MAGL (Mus musculus, UniProt O35678).
T3 sequence (O35678 1-303): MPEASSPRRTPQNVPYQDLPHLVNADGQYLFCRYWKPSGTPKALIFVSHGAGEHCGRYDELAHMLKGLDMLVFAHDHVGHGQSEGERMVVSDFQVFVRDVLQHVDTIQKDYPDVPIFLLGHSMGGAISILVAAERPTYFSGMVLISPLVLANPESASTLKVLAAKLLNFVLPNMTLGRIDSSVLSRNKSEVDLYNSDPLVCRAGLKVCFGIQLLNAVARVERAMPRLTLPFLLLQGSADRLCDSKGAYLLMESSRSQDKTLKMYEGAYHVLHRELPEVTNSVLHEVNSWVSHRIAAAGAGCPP
The experiment can be described thus: In vitro competitive activity-based protein profiling (FP-Rh), mouse MAGL. How it is done:
as §1, §2

Usually IC50 stands for the midpoint of a concentration-inhibition curve. On to `O=C(ON1C(=O)CCC1=O)N1CCN(Cc2ccc(Cl)cc2-n2cc(Cl)cn2)CC1` [Example 95, 2,5-Dioxopyrrolidin-1-yl 4-(4-chloro-2-(4-chloro-1H-pyrazol-1-yl)benzyl)piperazine-1-carboxylate], for which the IC50 was more than 10000 nM at FAAH, 100 to 1000 nM at ABHD6 and less than 100 nM at MAGL.

Regarding `O=C(ON1C(=O)CCC1=O)N1CCN(Cc2c(Cl)cccc2N2CCCC2)CC1` [Example 97, 2,5-Dioxopyrrolidin-1-yl 4-{[2-chloro-6-(pyrrolidin-1-yl)phenyl]methyl}piperazine-1-carboxylate], the concentration for half-maximal inhibition (IC50) at FAAH was more than 10000 nM; at ABHD6, 100 to 1000 nM; on MAGL, 1000 to 10000 nM.

For `O=C(ON1C(=O)CCC1=O)N1CCN(Cc2cc(Cl)ccc2N2CCCC2)CC1` [Example 98, 2,5-Dioxopyrrolidin-1-yl 4-{[5-chloro-2-(pyrrolidin-1-yl)phenyl]methyl}piperazine-1-carboxylate], the IC50 at FAAH is more than 10000 nM; at ABHD6 it was 100 to 1000 nM; on MAGL it was less than 100 nM.

In the case of `O=C(ON1C(=O)CCC1=O)N1CCN(Cc2ccc(N3CCOCC3)c(Cl)c2)CC1` [Example 101, 2,5-dioxopyrrolidin-1-yl 4-(3-chloro-4-morpholinobenzyl)piperazine-1-carboxylate], the IC50 at FAAH is more than 10000 nM; at ABHD6, 100 to 1000 nM; at MAGL it was 1000 to 10000 nM.

`O=C(ON1C(=O)CCC1=O)N1CCN(Cc2ccc(N3CCCC3)cc2OC(F)(F)F)CC1` [Example 104, 2,5-Dioxopyrrolidin-1-yl 4-{[4-(pyrrolidin-1-yl)-2-(trifluoromethoxy)phenyl]methyl}piperazine-1-carboxylate]: the half-inhibitory concentration (IC50) at FAAH was more than 10000 nM; on ABHD6 it was 100 to 1000 nM; at MAGL it was 100 to 1000 nM.

With `O=C(ON1C(=O)CCC1=O)N1CCN(Cc2cccc(Cl)c2N2CCCC2)CC1` [Example 106, 2,5-Dioxopyrrolidin-1-yl 4-{[3-chloro-2-(pyrrolidin-1-yl)phenyl]methyl}piperazine-1-carboxylate], the IC50 at FAAH is more than 10000 nM; at ABHD6 it was 1000 to 10000 nM; at MAGL, less than 100 nM.

`O=C(ON1C(=O)CCC1=O)N1CCN(Cc2cccc(F)c2N2CCCC2)CC1` [Example 107, 2,5-Dioxopyrrolidin-1-yl 4-{[3-fluoro-2-(pyrrolidin-1-yl)phenyl]methyl}piperazine-1-carboxylate]: the 50% inhibitory concentration (IC50) at FAAH was more than 10000 nM; at ABHD6, 100 to 1000 nM; on MAGL, less than 100 nM.

Take `O=C(ON1C(=O)CCC1=O)N1CCN(Cc2ccc(-n3cccn3)c(F)c2)CC1` [Example 108, 2,5-Dioxopyrrolidin-1-yl 4-(3-fluoro-4-(1H-pyrazol-1-yl)benzyl)piperazine-1-carboxylate]: the half-maximal inhibitory concentration (IC50) on FAAH was more than 10000 nM; on ABHD6 it was 1000 to 10000 nM; on MAGL, 1000 to 10000 nM.

Consider `O=C(ON1C(=O)CCC1=O)N1CCN(Cc2ccc(Cl)cc2N2CCC3(CCOCC3)C2)CC1` [Example 109, 2,5-Dioxopyrrolidin-1-yl 4-[(4-chloro-2-{8-oxa-2-azaspiro[4.5]decan-2-yl}phenyl)methyl]piperazine-1-carboxylate], for which the IC50 is more than 10000 nM at FAAH, 1000 to 10000 nM on ABHD6 and less than 100 nM on MAGL.

As to `O=C(ON1C(=O)CCC1=O)N1CCN(Cc2ccc(Cl)cc2N2Cc3cccnc3C2)CC1` [Example 114, 2,5-Dioxopyrrolidin-1-yl 4-[(4-chloro-2-{5H,6H,7H-pyrrolo[3,4-b]pyridin-6-yl}phenyl)methyl]piperazine-1-carboxylate], the IC50 on FAAH is more than 10000 nM; on ABHD6 it was 100 to 1000 nM; at MAGL, less than 100 nM.

Turning to `CC(=O)N1CCN(c2cc(Cl)ccc2CN2CCN(C(=O)ON3C(=O)CCC3=O)CC2)CC1` [Example 115, 2,5-Dioxopyrrolidin-1-yl 4-{[2-(4-acetylpiperazin-1-yl)-4-chlorophenyl]methyl}piperazine-1-carboxylate], the values for the 50% inhibitory concentration (IC50) on FAAH, at ABHD6 and at MAGL were more than 10000 nM, 1000 to 10000 nM and 100 to 1000 nM, respectively.

With `COC(=O)c1cc(CN2CCN(C(=O)ON3C(=O)CCC3=O)CC2)ccc1N1CCOCC1` [Example 118, 2,5-Dioxopyrrolidin-1-yl 4-(3-(methoxycarbonyl)-4-morpholinobenzyl)piperazine-1-carboxylate], the IC50 on FAAH is more than 10000 nM; at ABHD6, 1000 to 10000 nM; on MAGL, 1000 to 10000 nM.

In the case of `Cc1c(CN2CCN(C(=O)ON3C(=O)CCC3=O)CC2)cccc1N1CCOCC1` [Example 121, 2,5-Dioxopyrrolidin-1-yl 4-(2-methyl-3-morpholinobenzyl)piperazine-1-carboxylate], the IC50 on FAAH is more than 10000 nM; on ABHD6 it was 100 to 1000 nM; on MAGL, less than 100 nM.

Take `Cc1c(CN2CCN(C(=O)ON3C(=O)CCC3=O)CC2)cccc1N1CCCC1` [Example 123, 2,5-Dioxopyrrolidin-1-yl 4-(2-methyl-3-(pyrrolidin-1-yl)benzyl)piperazine-1-carboxylate]: the IC50 at FAAH is more than 10000 nM; on ABHD6 it was 100 to 1000 nM; at MAGL it was less than 100 nM.

On to `O=C(ON1C(=O)CCC1=O)N1CCN(Cc2ccc(F)c(N3CCCC3)c2)CC1` [Example 124, 2,5-Dioxopyrrolidin-1-yl 4-(4-fluoro-3-(pyrrolidin-1-yl)benzyl)piperazine-1-carboxylate], for which the IC50 was more than 10000 nM at FAAH, 100 to 1000 nM at ABHD6 and less than 100 nM at MAGL.

For the compound `O=C(ON1C(=O)CCC1=O)N1CCN(Cc2ccc(Cl)cc2N2CCCCC2)CC1` [Example 129, 2,5-Dioxopyrrolidin-1-yl 4-(4-chloro-2-(piperidin-1-yl)benzyl)piperazine-1-carboxylate], the IC50 at FAAH is more than 10000 nM; at ABHD6, 100 to 1000 nM; at MAGL it was less than 100 nM.

In the case of `O=C(ON1C(=O)CCC1=O)N1CCN(Cc2ccc(Cl)cc2N2CC3CCC(C2)O3)CC1` [Example 130, 2,5-Dioxopyrrolidin-1-yl 4-(2-(8-oxa-3-azabicyclo[3.2.1]octan-3-yl)-4-chlorobenzyl)piperazine-1-carboxylate], the IC50 was more than 10000 nM at FAAH, 1000 to 10000 nM at ABHD6 and less than 100 nM on MAGL.

In the case of `O=C(ON1C(=O)CCC1=O)N1CCN(Cc2ccc(Cl)cc2N2CCOC3CCCC32)CC1` (stereo not drawn) [Example 131, 2,5-Dioxopyrrolidin-1-yl 4-(4-chloro-2-(hexahydrocyclopenta[b][1,4]oxazin-4(4aH)-yl)benzyl)piperazine-1-carboxylate], the IC50 is more than 10000 nM at FAAH, 1000 to 10000 nM on ABHD6 and less than 100 nM at MAGL.

Turning to `O=C(ON1C(=O)CCC1=O)N1CCN(Cc2cc(Cl)cc(N3CCCCC3)c2)CC1` [Example 132, 2,5-Dioxopyrrolidin-1-yl 4-(3-chloro-5-(piperidin-1-yl)benzyl)piperazine-1-carboxylate], the 50% inhibitory concentration (IC50) on FAAH is more than 10000 nM; at ABHD6, 100 to 1000 nM; at MAGL it was less than 100 nM.

Consider `O=C(ON1C(=O)CCC1=O)N1CCN(Cc2cccc(N3CCCCC3)c2)CC1` [Example 133, 2,5-Dioxopyrrolidin-1-yl 4-(3-(piperidin-1-yl)benzyl)piperazine-1-carboxylate], for which the figures for the IC50 at FAAH, at ABHD6 and on MAGL were more than 10000 nM, less than 100 nM and less than 100 nM, respectively.
